Measurements as given in ChEMBL document CHEMBL3856212, “Synthesis, anti-proliferative and genotoxicity studies of 6-chloro-5-(2-substituted-ethyl)-1,3-dihydro-2H-indol-2-ones and 6-chloro-5-(2-chloroethyl)-3-(alkyl/ary-2-ylidene)indolin-2-ones” (Eur J Med Chem, 2016).

Assays:
[1] = Cytotoxicity against human MCF7 cells assessed as assessed as growth inhibition at 10^-5 M after 48 hrs by SRB assay relative to control; type: functional; details: MCF7, 48 h, read-out: GI
[2] = Cytotoxicity against human HCC2998 cells assessed as growth inhibition after 48 hrs by SRB assay; type: functional; details: HCC 2998, 48 h
[3] = Cytotoxicity against human HT-29 cells assessed as assessed as growth inhibition at 10^-5 M after 48 hrs by SRB assay relative to control; type: functional; details: HT-29, 48 h, read-out: GI
[4] = Cytotoxicity against human ACHN cells assessed as assessed as growth inhibition at 10^-5 M after 48 hrs by SRB assay relative to control; type: functional; details: read-out: GI
[5] = Cytotoxicity against human HCT116 cells assessed as assessed as growth inhibition at 10^-5 M after 48 hrs by SRB assay relative to control; type: functional; details: HCT-116, 48 h, read-out: GI
[6] = Cytotoxicity against human U251 cells assessed as assessed as growth inhibition at 10^-5 M after 48 hrs by SRB assay relative to control; type: functional; details: U-251, 48 h, read-out: GI
[7] = Cytotoxicity against human MDA-MB-231 cells assessed as assessed as growth inhibition at 10^-5 M after 48 hrs by SRB assay relative to control; type: functional; details: MDA-MB-231, 48 h, read-out: GI
[8] = Induction of apoptosis in mouse EAC cells at 375 uM after 24 hrs by acridine orange dye-based fluorescence microscopy (reference value: 0.66 +/- 0.33%); type: cell-based; details: ehrlich
[9] = Cytotoxicity against human SNB75 cells assessed as assessed as growth inhibition at 10^-5 M after 48 hrs by SRB assay relative to control; type: functional; details: SNB-75, 48 h, read-out: GI
[10] = Cytotoxicity against human SK-MEL-2 cells assessed as assessed as growth inhibition at 10^-5 M after 48 hrs by SRB assay relative to control; type: functional; details: SK-MEL-2, 48 h, read-out: GI
[11] = Cytotoxicity against human HOP62 cells assessed as growth inhibition after 48 hrs by SRB assay; type: functional; details: HOP-62, 48 h
Mus musculus [12] = species: Mus musculus; assay: Genotoxicity in mouse EAC cells at 250 uM after 24 hrs by micronucleus assay (reference value: 3.5 +/- 0.30%); type: toxicity, cell-based; details: ehrlich
[13] = Cytotoxicity against human NCI-H460 cells assessed as assessed as growth inhibition at 10^-5 M after 48 hrs by SRB assay relative to control; type: functional; details: NCI-H460, 48 h, read-out: GI
[14] = Cytotoxicity against human SNB19 cells assessed as growth inhibition after 48 hrs by SRB assay; type: functional; details: SNB-19, 48 h
[15] = Cytotoxicity against human SKOV3 cells assessed as growth inhibition after 48 hrs by SRB assay; type: functional; details: SK-OV-3, 48 h
[16] = Cytotoxicity against human HCC2998 cells assessed as assessed as growth inhibition at 10^-5 M after 48 hrs by SRB assay relative to control; type: functional; details: HCC 2998, 48 h, read-out: GI
[17] = Cytotoxicity against human HOP62 cells assessed as assessed as growth inhibition at 10^-5 M after 48 hrs by SRB assay relative to control; type: functional; details: HOP-62, 48 h, read-out: GI
[18] = Cytotoxicity against human SNB75 cells assessed as growth inhibition after 48 hrs by SRB assay; type: functional; details: SNB-75, 48 h
[19] = Cytotoxicity against human NCI-ADR-RES cells assessed as growth inhibition after 48 hrs by SRB assay; type: functional
[20] = Cytotoxicity against human MDA-MB-231 cells assessed as growth inhibition after 48 hrs by SRB assay; type: functional; details: MDA-MB-231, 48 h
[21] = Cytotoxicity against human BT549 cells assessed as growth inhibition after 48 hrs by SRB assay; type: functional; details: BT-549, 48 h
[22] = Cytotoxicity against human LOXIMVI cells assessed as growth inhibition after 48 hrs by SRB assay; type: functional; details: LOX IMVI
[23] = Cytotoxicity against human TK10 cells assessed as assessed as growth inhibition at 10^-5 M after 48 hrs by SRB assay relative to control; type: functional; details: TK-10, 48 h, read-out: GI
[24] = Cytotoxicity against human MALME-3M cells assessed as assessed as growth inhibition at 10^-5 M after 48 hrs by SRB assay relative to control; type: functional; details: read-out: GI
[25] = Cytotoxicity against human KM12 cells assessed as assessed as growth inhibition at 10^-5 M after 48 hrs by SRB assay relative to control; type: functional; details: KM12, 48 h, read-out: GI
[26] = Cytotoxicity against human Caki1 cells assessed as assessed as growth inhibition at 10^-5 M after 48 hrs by SRB assay relative to control; type: functional; details: CAKI-1, 48 h, read-out: GI
[27] = Cytotoxicity against human MDA-MB-435 cells assessed as growth inhibition after 48 hrs by SRB assay; type: functional; details: MDA-MB-435, 48 h
Mus musculus [28] = species: Mus musculus; assay: Genotoxicity in mouse EAC cells at 500 uM after 24 hrs by micronucleus assay (reference value: 3.5 +/- 0.30%); type: toxicity, cell-based; details: ehrlich
[29] = Cytotoxicity against human NCI-H460 cells assessed as growth inhibition after 48 hrs by SRB assay; type: functional; details: NCI-H460, 48 h
[30] = Cytotoxicity against human SKOV3 cells assessed as assessed as growth inhibition at 10^-5 M after 48 hrs by SRB assay relative to control; type: functional; details: SK-OV-3, 48 h, read-out: GI
Mus musculus [31] = species: Mus musculus; assay: Genotoxicity in mouse EAC cells at 375 uM after 24 hrs by micronucleus assay (reference value: 3.5 +/- 0.30%); type: toxicity, cell-based; details: ehrlich
[32] = Cytotoxicity against human UACC257 cells assessed as assessed as growth inhibition at 10^-5 M after 48 hrs by SRB assay relative to control; type: functional; details: UACC-257, 48 h, read-out: GI
[33] = Cytotoxicity against human NCI-H23 cells assessed as assessed as growth inhibition at 10^-5 M after 48 hrs by SRB assay relative to control; type: functional; details: NCI-H23, 48 h, read-out: GI
[34] = Cytotoxicity against human UACC257 cells assessed as growth inhibition after 48 hrs by SRB assay; type: functional; details: UACC-257, 48 h
[35] = read-out: LD50 (the source's name)

SMILES: O=C1Cc2cc(CCn3cncn3)c(Cl)cc2N1
- inhibition of growth at 10 µM [1]: 71%
- GI50 [2]: 1000 nM
- TGI [2]: > 1000 nM
- CC50 [2, 35]: > 1000 nM
- inhibition of growth at 10 µM [3]: 2.85%
- inhibition of growth at 10 µM [4]: 25.4%
- inhibition of growth at 10 µM [5]: 21%
- inhibition of growth at 10 µM [6]: 26.6%
- inhibition of growth at 10 µM [7]: 44%
- Activity [8]: 0.9%
- inhibition of growth at 10 µM [9]: 36.5%
- inhibition of growth at 10 µM [10]: 28.7%
- GI50 [11]: 2990 nM
- TGI [11]: > 1000 nM
- CC50 [11, 35]: > 1000 nM
- Activity (Mus musculus [12]): 3.5%
- inhibition of growth at 10 µM [13]: 16.1%
- GI50 [14]: 7070 nM
- TGI [14]: > 1000 nM
- CC50 [14, 35]: > 1000 nM
- GI50 [15]: 3650 nM
- TGI [15]: > 1000 nM
- CC50 [15, 35]: > 1000 nM
- inhibition of growth at 10 µM [16]: 24.9%
- inhibition of growth at 10 µM [17]: 30.4%
- GI50 [18]: 1320 nM
- TGI [18]: > 1000 nM
- CC50 [18, 35]: > 1000 nM
- GI50 [19]: 5850 nM
- TGI [19]: > 1000 nM
- CC50 [19, 35]: > 1000 nM
- GI50 [20]: 4660 nM
- TGI [20]: > 1000 nM
- CC50 [20, 35]: > 1000 nM
- GI50 [21]: 8720 nM
- TGI [21]: > 1000 nM
- CC50 [21, 35]: > 1000 nM
- GI50 [22]: 1000 nM
- TGI [22]: > 1000 nM
- CC50 [22, 35]: > 1000 nM
- inhibition of growth at 10 µM [23]: -21.7%
- inhibition of growth at 10 µM [24]: 6.24%
- inhibition of growth at 10 µM [25]: 64%
- inhibition of growth at 10 µM [26]: 40%
- GI50 [27]: 3220 nM
- TGI [27]: > 1000 nM
- CC50 [27, 35]: > 1000 nM
- Activity (Mus musculus [28]): 5.23%
- GI50 [29]: 6860 nM
- TGI [29]: > 1000 nM
- CC50 [29, 35]: > 1000 nM
- inhibition of growth at 10 µM [30]: 20.7%
- Activity (Mus musculus [31]): 4.13%
- inhibition of growth at 10 µM [32]: 48.3%
- inhibition of growth at 10 µM [33]: 75.9%
- GI50 [34]: 7140 nM
- TGI [34]: > 1000 nM
- CC50 [34, 35]: > 1000 nM
